Measurements reported in patent publication US20100160321A1, “IMIDAZOLINONE AND HYDANTOINE DERIVATIVES AS NOVEL INHIBITORS OF HISTONE DEACETYLASE” (priority 2005, published 2010).

What was measured:
[1] = biological target: histone deacetylase (HeLa nuclear extracts); test: In vitro assay for inhibition of histone deacetylase (HDAC Fluorescent Activity Assay, Fluor de Lys); type: biochemical; conditions: HeLa nuclear extracts 60 μg/ml, 75 μM Fluor de Lys substrate, example C.1
Excerpt: The in vitro assay for inhibition of histone deacetylase (see example C.1) measures the inhibition of HDAC enzymatic activity obtained with the compounds of formula (I).
The HDAC Fluorescent Activity Assay/Drug Discovery Kit of Biomol (cat.No: AK-500-0001) was used. The HDAC Fluorescent Activity Assay is based on the Fluor de Lys (Fluorogenic Histone deAcetylase Lysyl) substrate and developer combination. The Fluor de Lys substrate, comprises an acetylated lysine side chain. Deacetylation of the substrate sensitizes the substrate so that, in the second step, treatment with the Fluor de Lys developer produces a fluorophore.
HeLa nuclear extracts (supplier: Biomol) were incubated at 60 μg/ml with 75 μM of substrate. The Fluor de Lys substrate was added in a buffer containing 25 mM Tris, 137 mM NaCl, 2.7 mM KCl and 1 mM MgCl2.6H2O at pH 7.4. After 30 min, 1 volume of the developer was added. The fluorophore was excited with 355 nm light and the emitted light (450 nm) was be detected on a fluorometric plate reader.
For each experiment, controls (containing HeLa nuclear extract and buffer), a blank incubation (containing buffer but no HeLa nuclear extract) and samples (containing compound dissolved in DMSO and further diluted in buffer and HeLa nuclear extract) were run in parallel. In first instance, compounds were tested at a concentration of 10^−5M. […] All sample were tested 4 times. In each test the blank value was subtracted from both the control and the sample values. The control sample represented 100% of substrate deactylation. For each sample the fluorescence was expressed as a percentage of the mean value of the controls. […] Herein the effects of test compounds are expressed as pIC50 (the negative log value of the IC50-value) (see Table F-3).

[2] = tested on: human A2780 ovarian carcinoma cells; test: Antiproliferative activity on A2780 cells (MTT); type: cell-based; conditions: 96 h, four days of incubation, example C.2, read-out: Cellular activity pIC50 (converted)
Description: All compounds tested were dissolved in DMSO and further dilutions were made in culture medium. Final DMSO concentrations never exceeded 0.1% (v/v) in cell proliferation assays. Controls contained A2780 cells and DMSO without compound and blanks contained DMSO but no cells. MTT was dissolved at 5 mg/ml in PBS.
Cells were routinely kept as monolayer cultures at 37° C. in a humidified 5% CO2 atmosphere. Cells were passaged once a week using a trypsin/EDTA solution at a split ratio of 1:40. All media and supplements were obtained from Life Technologies. Cells were free of mycoplasma contamination as determined using the Gen-Probe Mycoplasma Tissue Culture kit (supplier: BioMerieux).
Cells were seeded in NUNC™ 96-well culture plates (Supplier: Life Technologies) and allowed to adhere to the plastic overnight. Densities used for plating were 1500 cells per well in a total volume of 200 μl medium. After cell adhesion to the plates, medium was changed and drugs and/or solvents were added to a final volume of 200 μl. Following four days of incubation, medium was replaced by 200 μl fresh medium and cell density and viability was assessed using an MTT-based assay. To each well, 25 μl MTT solution was added and the cells were further incubated for 2 hours at 37° C. The medium was then carefully aspirated and the blue MTT-formazan product was solubilized by addition of 25 μl glycine buffer followed by 100 μl of DMSO. […] Within an experiment, the results for each experimental condition are the mean of 3 replicate wells. […] For each experiment, controls (containing no drug) and a blank incubation (containing no cells or drugs) were run in parallel. The blank value was subtracted from all control and sample values. For each sample, the mean value for cell growth (in absorbance units) was expressed as a percentage of the mean value for cell growth of the control. […] Herein the effects of test compounds are expressed as pIC50 (the negative log value of the IC50-value)(see Table F-3).

Row | SMILES | Enzyme activity pIC50 [1] | IC50 [2] [nM] | melting point [°C]
1 | N#Cc1ccc(N2C(=O)C(c3ccccc3)N(CC3CCN(c4ncc(C(=O)NO)cn4)CC3)C2=O)cc1 (centres unmarked) [Compound 5] | 7.1 | 631 | 187
2 | O=C(NO)c1cnc(N2CCOC(Cn3ccn(-c4ccccc4)c3=O)C2)nc1 (centres unmarked) [Compound 12] | 7.5 | 631 | 
3 | COc1ccc(-n2ccn(CC3CN(c4ncc(C(=O)NO)cn4)CCO3)c2=O)cc1OC (centres unmarked) [Compound 13] | 7.3 | 794 | 
4 | O=C(NO)c1cnc(N2CCOC(Cn3ccn(-c4cccc(C(F)(F)F)c4)c3=O)C2)nc1 (centres unmarked) [Compound 15] | 7.3 | 1260 | 
5 | CC1C(=O)N(c2ccc(-c3ccccc3)cc2)C(=O)N1CC1CCN(c2ncc(C(=O)NO)cn2)CC1 (centres unmarked) [Compound 6] | 7.2 | 501 | 169
6 | O=C(NO)c1cnc(N2CCC(Cn3ccn(-c4ccc(-c5ccccc5)cc4)c3=O)CC2)nc1 [Compound 3] | 7.8 | 79.4 | 
7 | CC1C(=O)N(c2ccc(C#N)cc2)C(=O)N1CC1CCN(c2ncc(C(=O)NO)cn2)CC1 (centres unmarked) [Compound 36] | 7.0 | 1580 | 135
8 | O=C(NO)c1cnc(N2CCC(CN3CCN(c4ccc(-c5ccccc5)cc4)C3=O)CC2)cn1 [Compound 11] | 7.3 | 631 | 
9 | COc1cc(-n2ccn(CC3CCN(c4ncc(C(=O)NO)cn4)CC3)c2=O)cc(OC)c1OC [Compound 25] | 7.4 | 631 | 
10 | O=C(NO)c1cnc(N2CCC(Cn3ccn(-c4cccc(F)c4)c3=O)CC2)nc1 [Compound 30] | 7.5 | 631 | 
11 | Cc1cccc(-n2ccn(CC3CN(c4ncc(C(=O)NO)cn4)CCO3)c2=O)c1 (centres unmarked) [Compound 14] | 6.8 | 6310 | 
12 | COc1cc(-n2ccn(CC3CN(c4ncc(C(=O)NO)cn4)CCO3)c2=O)cc(OC)c1OC (centres unmarked) [Compound 16] | 7.2 | 1260 | 
13 | Cc1[nH]c2ccccc2c1CCn1ccn(CC2CCN(c3ncc(C(=O)NO)cn3)CC2)c1=O [Compound 35] | 7.9 | 501 | 246
14 | Cc1ccc(-n2ccn(CC3CN(c4ncc(C(=O)NO)cn4)CCO3)c2=O)cc1 (centres unmarked) [Compound 22] | 7.2 | 5010 | 
15 | COc1cc(OC)cc(-n2ccn(CC3CCN(c4ncc(C(=O)NO)cn4)CC3)c2=O)c1 [Compound 26] | 7.4 | 501 | 
16 | COc1ccc(-n2ccn(CC3CCN(c4ncc(C(=O)NO)cn4)CC3)c2=O)cc1OC [Compound 27] | 7.5 | 631 | 

Further lines, with some results ahead:

Row | Enzyme activity pIC50 [1] | IC50 [2] [nM] | SMILES | melting point [°C]
17 | 7.1 | 1000 | O=C(NO)c1cnc(N2CCC(CN3CCN(c4cccc5ccccc45)C3=O)CC2)nc1 [Compound 1] | 
18 | 7.4 | 631 | O=C(NO)c1cnc(N2CCC(Cn3ccn(-c4ccc5c(c4)OCCOCCOCCOCCO5)c3=O)CC2)nc1 [Compound 24] | 
19 | 7.4 | 501 | O=C(NO)c1cnc(N2CCOC(Cn3ccn(-c4cccc(F)c4)c3=O)C2)nc1 (centres unmarked) [Compound 21] | 
20 | 7.6 | 631 | COc1ccc(-n2ccn(CC3CCN(c4ncc(C(=O)NO)cn4)CC3)c2=O)cc1 [Compound 28] | 
21 | 6.6 | 1000 | O=C(NO)c1cnc(N2CCC(Cn3ccn(-c4ccccc4)c3=O)CC2)nc1 [Compound 32] | 
22 | 7.2 | 2510 | O=C(NO)c1cnc(N2CCC(CN3CCN(c4ccc(Oc5ccccc5)cc4)C3=O)CC2)nc1 [Compound 10] | 
23 | 7.7 | 631 | Cc1ccc(-n2ccn(CC3CCN(c4ncc(C(=O)NO)cn4)CC3)c2=O)cc1 [Compound 31] | 
24 | 7.2 | 1260 | O=C(NO)c1cnc(N2CCC(Cn3ccn(-c4cccc(C(F)(F)F)c4)c3=O)CC2)nc1 [Compound 23] | 
25 | 7.7 | 631 | COc1cccc(-n2ccn(CC3CCN(c4ncc(C(=O)NO)cn4)CC3)c2=O)c1 [Compound 29] | 
26 | 7.5 | 126 | O=C(NO)c1cnc(N2CCC(Cn3ccn(-c4ccc(Oc5ccccc5)cc4)c3=O)CC2)nc1 [Compound 2] | 
27 | 7.2 | 1260 | COc1ccc(-n2ccn(CC3CN(c4ncc(C(=O)NO)cn4)CCO3)c2=O)cc1 (centres unmarked) [Compound 18] | 
28 | 7.3 | 501 | O=C(NO)c1cnc(N2CCOC(Cn3ccn(-c4ccc(F)cc4)c3=O)C2)nc1 (centres unmarked) [Compound 20] | 
29 | 7.6 | 631 | O=C(NO)c1cnc(N2CCC(Cn3ccn(-c4ccc(F)cc4)c3=O)CC2)nc1 [Compound 4] | 
